These results are taken from US8664217B2, “Benzodiazepine compound and pharmaceutical composition” (Otsuka Pharmaceutical Co., Ltd., priority 2008, dated 2014).

The structures appear in SMILES notation. pIC50: −log10 of the molar value. Where a name gives a salt, the structure may show the parent alone.

For the experiment, the target named is T1, human Kv1.5 channels (Homo sapiens, UniProt P22460).
T1 construct: Full-length human Kv1.5 cDNA was cloned from a human heart cDNA library; expressed in transfected cells; host or cells: CHO-K1
In words: Measurement of human Kv1.5 channel current by whole-cell patch clamp method (human Kv1.5-expressing CHO-K1 cell line). The format is cell-based. The following applies: human Kv1.5-expressing CHO-K1 cells, step end current at +40 mV, test compound 0.1, 1, 10 μM. The method, then: Pharmacological Test 1 (1) Production of Human Kv1.5-Expressing CHO-K1 Cell Lines
CHO-K1 cell lines stably expressing human Kv1.5 channels were prepared in the following manner.
Full-length human Kv1.5 cDNA was cloned from a human heart cDNA library (produced by Stratagene). The obtained human Kv1.5 sequence corresponds to the sequence described in FASEB J. 5, 331-337 (1991).
The obtained human Kv1.5 cDNA was inserted into a plasmid encoding a CMV promoter and a G418 resistance marker to produce a Kv1.5 expression vector. The human Kv1.5 expression vector was transfected into CHO-K1 cells by the lipofectamine method. After culturing the cells in an F-12 medium (produced by Invitrogen Corp.) containing 10% FBS (produced by Invitrogen Corp.) for 3 or 4 days, the medium was replaced with a FBS-containing F-12 medium that included 1,000 μg/ml of G418 (produced by Invitrogen Corp.), and single colonies were isolated. The amount of Kv1.5 channel expression in the single colonies was quantified at the mRNA level by RT-PCR and then quantified at the protein level by western blotting. Finally, the expressed current was analyzed by patch clamp method. Cell lines expressing a current of 200 pA or more per cell were selected as channel-expressing cell lines for activity measurement by patch clamp method.
(3) Measurement of Ion Channel Current by Patch Clamp Method (Human Kv1.5-Expressing CHO-K1 Cell Line)
An experiment was carried out using a patch clamp setup at room temperature (20 to 26° C.). A perfusion chamber having a diameter of 20 mm (flow rate: about 5 ml/min) was mounted on the stage of a phase-contrast inverted microscope (produced by Nikon Corporation) placed on a vibration isolated table. A poly-L-lysine (produced by Sigma)-coated coverslip (diameter: 15 mm, produced by Matsunami Glass Ind., Ltd.) on which human Kv1.5-expressing cells were cultured was placed in the perfusion chamber.
Depolarizing stimulation pulses were applied and ionic current was recorded by using a patch clamp amplifier (EPC-7 or EPC-7 PLUS, produced by HEKA) and a personal computer (manufactured by IBM Corp.) in which software for data acquisition and analysis of ion channel current (PULSE 8.77, produced by HEKA) was installed. The current was measured in the whole-cell configuration of the patch-clamp technique. The tip (resistance: 2 to 4 MΩ) of a borosilicate glass pipette (produced by Sutter Instrument Co.) was gently placed on the cell membrane by using a three-dimensional mechanical micromanipulator (produced by Shoshin EM Corporation). […] Subsequently, stronger suction was applied to break the cell membrane. The capacitative current derived from the cell membrane was corrected using a patch clamp amplifier. Subsequently, the series resistance (Rs) between the pipette and the interior of the cell was measured and corrected.
The composition of the extracellular solution used is shown below. Unless otherwise specified, these components were obtained from Wako Pure Chemical Industries, Ltd.
Each test compound was prepared as a 1000-fold concentrated stock solution that was dissolved in DMSO and then diluted in the extracellular solution.
The composition of the electrode internal solution used is shown below. Unless otherwise specified, these components were obtained from Wako Pure Chemical Industries, Ltd.
(5) Measurement of Human Kv1.5 Current
While the membrane potential was bolded at −80 mV, depolarizing pulses (−80 mV for 0.05 seconds→+40 mV for 0.2 seconds →−40 mV for 0.2 seconds→−80 mV for 0.05 seconds) were applied at a stimulation frequency of 1 Hz to measure Kv1.5 channel current. More specifically, first, while perfusing an extracellular solution containing 0.1% DMSO and holding the membrane potential at −80 mV, depolarizing pulses were applied. The current obtained during the pulse application was recorded as a current in the absence of the test compounds. […]
In general terms: Patch clamp records ionic current or voltage across a cell membrane.

T1 sequence (P22460 whole entry): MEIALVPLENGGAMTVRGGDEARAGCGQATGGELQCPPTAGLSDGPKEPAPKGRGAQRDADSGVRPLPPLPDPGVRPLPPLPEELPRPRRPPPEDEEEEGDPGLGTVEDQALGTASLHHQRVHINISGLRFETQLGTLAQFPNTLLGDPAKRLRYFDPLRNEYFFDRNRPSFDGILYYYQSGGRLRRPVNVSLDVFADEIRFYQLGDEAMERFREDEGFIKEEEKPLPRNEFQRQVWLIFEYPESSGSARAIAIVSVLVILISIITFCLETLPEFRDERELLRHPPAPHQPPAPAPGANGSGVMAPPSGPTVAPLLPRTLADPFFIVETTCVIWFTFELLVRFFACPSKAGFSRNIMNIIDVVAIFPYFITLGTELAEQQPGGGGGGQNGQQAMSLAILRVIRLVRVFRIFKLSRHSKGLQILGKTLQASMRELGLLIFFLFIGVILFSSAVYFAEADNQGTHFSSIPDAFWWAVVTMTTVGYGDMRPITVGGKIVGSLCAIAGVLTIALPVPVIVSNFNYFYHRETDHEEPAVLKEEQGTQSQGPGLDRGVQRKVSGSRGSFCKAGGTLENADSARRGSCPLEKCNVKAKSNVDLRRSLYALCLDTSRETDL

For orientation: pIC50 means −log10 of the IC50, conventionally taken in molar units. A low value points to a high IC50. Take `CCN1C(=O)C(C)(C)C(=O)N(C)c2cc(OCCCN(CCn3ccc4ccoc4c3=O)Cc3ccncc3)ccc21` [Example 31, 1-ethyl-3,3,5-trimethyl-7-(3-{[2-(7-oxo-7H-furo[2,3-c]pyridin-6-yl)ethyl]pyridin-4-ylmethylamino}propoxy)-1,5-dihydrobenzo[b][1,4]diazepine-2,4-dione dihydrochloride]: the pIC50 was 5.89. In turn, `CCCc1ncccc1CN(CCCOc1ccc2c(c1)N(C)C(=O)C(C)(C)C(=O)N2CC)CCn1ccc2oc(C)cc2c1=O` [Example 611, 1-ethyl-3,3,5-trimethyl-7-{3-[[2-(2-methyl-4-oxo-4H-furo[3,2-c]pyridin-5-yl)ethyl]-(2-propylpyridin-3-ylmethyl)amino]propoxy}-1,5-dihydrobenzo[b][1,4]diazepine-2,4-dione dihydrochloride] had a pIC50 of 6.51. `Cc1ccccc1CN(CCCOc1ccc2c(c1)N(C)C(=O)C(C)(C)C(=O)N2C)CCc1cccnc1` [Example 50, 1,3,3,5-tetramethyl-7-{3-[(2-methylbenzyl)-(2-pyridin-3-ylethyl)amino]propoxy}-1,5-dihydrobenzo[b][1,4]diazepine-2,4-dione dihydrochloride] gave a pIC50 of 6.60. As for `CCN1C(=O)C(C)(C)C(=O)N(C)c2cc(OCCCN(CCc3cccnc3)Cc3ccncc3)ccc21` [Example 8, 1-ethyl-3,3,5-trimethyl-7-{3-[(2-pyridin-3-ylethyl)pyridin-4-ylmethylamino]propoxy}-1,5-dihydrobenzo[b][1,4]diazepine-2,4-dione trihydrochloride], the figure is 6.40. Molecule `CCN1C(=O)C(C)(C)C(=O)N(C)c2cc(OCCCN(CCc3cccnc3)Cc3ccccc3-c3cccnc3)ccc21` [Example 242] showed a pIC50 of 6.74.

Consider `CN(CCN(CCCOc1ccc2c(c1)N(C)C(=O)C(C)(C)C(=O)N2C)Cc1ccncc1)C(=O)c1ccccc1` [Example 45, N-methyl-N-(2-{pyridin-4-ylmethyl-[3-(1,3,3,5-tetramethyl-2,4-dioxo-2,3,4,5-tetrahydro-1H-benzo[b][1,4]diazepin-7-yloxy)propyl]amino}ethyl)benzamide dihydrochloride], for which the pIC50 was 6.16. Regarding `CCN1C(=O)C(C)(C)C(=O)N(C)c2cc(OCCCN(CCn3ccc4ccoc4c3=O)Cc3ccccc3C)ccc21` [Example 398], the pIC50 was 6.66. `CCN1C(=O)C(C)(C)C(=O)N(C)c2cc(OCCCN(CCn3ccc4occc4c3=O)Cc3cccnc3)ccc21` [Example 551, 1-ethyl-3,3,5-trimethyl-7-(3-{[2-(4-oxo-4H-furo[3,2-c]pyridin-5-yl)ethyl]pyridin-3-ylmethylamino}-propoxy)-1,5-dihydrobenzo[b][1,4]diazepine-2,4-dione] gave a pIC50 of 6.41. Regarding `CN1C(=O)C(C)(C)C(=O)N(C)c2cc(OCCCN(CCc3cccnc3)Cc3ccnc4ccccc34)ccc21` [Example 51, 1,3,3,5-tetramethyl-7-{3-[(2-pyridin-3-ylethyl)-(quinolin-4-ylmethyl)amino]propoxy}-1,5-dihydrobenzo[b][1,4]diazepine-2,4-dione trihydrochloride], the pIC50 is 6.68. The molecule `CCN1C(=O)C(C)(C)C(=O)N(C)c2cc(OCCCN(CCn3ccc4occc4c3=O)Cc3cccnc3C)ccc21` [Example 575, 1-ethyl-3,3,5-trimethyl-7-(3-{(2-methylpyridin-3-ylmethyl)-[2-(4-oxo-4H-furo[3,2-c]pyridin-5-yl)ethyl]-amino}propoxy)-1,5-dihydrobenzo[b][1,4]diazepine-2,4-dione] gave a pIC50 of 6.36. Molecule `CCN1C(=O)C(C)(C)C(=O)N(CC)c2cc(OCCCN(CCc3cccnc3)Cc3ccncc3)ccc21` [Example 14, 1,5-diethyl-3,3-dimethyl-7-{3-[(2-pyridin-3-ylethyl)pyridin-4-ylmethylamino]propoxy}-1,5-dihydrobenzo[b][1,4]diazepine-2,4-dione trihydrochloride] had a pIC50 of 6.24.
